Data from US20110039879A1, “METHODS FOR INCREASING WHITE BLOOD CELLS” (FibroGen ,Inc., priority 2007, published 2011).

What was measured:
Format in all cases: in vivo, Swiss-Webster mice
[1] = tested on: monocytes; assay: Monocytes by complete blood count on day 8, dosing day 1, 3, 5; details: mice, oral gavage, 6 mg/kg on day 1, day 3 and day 5, measured on day 8
[2] = tested on: neutrophils; assay: Neutrophils by complete blood count on day 8, dosing day 1, 3, 5; details: mice, oral gavage, 6 mg/kg on day 1, day 3 and day 5, measured on day 8; for change in vivo at 6 mg/kg: Mus musculus, Neutrophil, 192 h, read-out: Neutrophils % Increase Over Control
[3] = tested on: lymphocytes; assay: Lymphocytes by complete blood count on day 8, dosing day 1, 3, 5; details: mice, oral gavage, 6 mg/kg on day 1, day 3 and day 5, measured on day 8; for change in vivo at 6 mg/kg: Mus musculus, Lymphocyte, 192 h, read-out: Lymphocytes % Increase Over Control
Method: (§1) To examine the effect of compounds and methods of the present invention on increasing white blood cells, the following studies were performed. In one series of experiments, male Swiss-Webster mice were administered various compounds of the present invention via oral gavage using a ball-tipped gavage needle. […] Animals were dosed once daily for 3 or 4 days. Six hours after the final dosing, 200 μl blood samples were collected and total white blood cell, neutrophil, and lymphocyte levels were measured by complete blood count (CBC) using a CellDyn cell analyzer (Abbott Laboratories).
(§2) In another series of experiments, male Swiss-Webster mice were administered various compounds (see Table 7 and Table 8) of the present invention via oral gavage using a ball-tipped gavage needle. […] Total WBC, neutrophil, lymphocyte, and monocyte levels were measured in mice as described above on day 8 following administration of compound on day 1, day 3, and day 5.

[4] = tested on: total white blood cell (WBC); assay: Total white blood cells by complete blood count on day 8, dosing day 1, 3, 5; details: mice, oral gavage, measured on day 8
[5] = tested on: total white blood cell (WBC); assay: as above; details: Mus musculus, 192 h, mice, oral gavage, measured on day 8, read-out: Total WBC % Increase Over Control; for change in vivo at 200 mg/kg: 200 mg/kg on day 1, day 3 and day 5; for change in vivo at 100 mg/kg: 100 mg/kg on day 1, day 3 and day 5; for change in vivo at 20 mg/kg: 20 mg/kg on day 1, day 3 and day 5
Method: as §1, §2

[6] = Mus musculus, 192 h, 6 mg/kg on day 1, day 3 and day 5, read-out: Total WBC % Increase Over Control
[7] = 6 mg/kg on day 1, day 3 and day 5
[8] = 200 mg/kg on day 1, day 3 and day 5
[9] = 100 mg/kg on day 1, day 3 and day 5
[10] = 60 mg/kg on day 1, day 3 and day 5
[11] = 20 mg/kg on day 1, day 3 and day 5

Question: For `O=C(O)CNC(=O)c1ncc2c(Oc3ccccc3)cccc2c1O` [Compound AB, [(4-Hydroxy-8-phenoxy-isoquinoline-3-carbonyl)-amino]-acetic acid], which Monocytes [1] is on record?
Answer: 0.2 10^3 cells/μl

Question: What about the change in vivo at 6 mg/kg [2] of the same molecule?
Answer: 398%

Question: What about the Neutrophils [2] of the same molecule?
Answer: 2.8 10^3 cells/μl

Question: And the change in vivo at 6 mg/kg [3]?
Answer: 42%

Question: And the Lymphocytes [3]?
Answer: 6.8 10^3 cells/μl

Question: What about the change in vivo at 6 mg/kg [4, 6] of the same molecule?
Answer: 78%

Question: What about the “Total WBC” value [4, 7] of the same molecule?
Answer: 9.8 10^3 cells/μl

Question: What does the source list for `CC(C)Oc1ccc(Cn2c(Cl)c(Cl)c3c(O)c(C(=O)N[C@@H](C)C(=O)O)nc(C#N)c32)cc1` [Compound BD, (S)-2-{[2,3-Dichloro-7-cyano-4-hydroxy-1-(4-isopropoxy-benzyl)-1H-pyrrolo[2,3-c]pyridine-5-carbonyl]-amino}-propionic acid]?
Answer: change in vivo at 200 mg/kg [5]: 93%; Total WBC [4, 8]: 14.1 10^3 cells/μl

Question: Which results are given for `COc1cccc(Oc2ccc3c(O)c(C(=O)NCC(=O)O)nc(C#N)c3c2)c1` [Compound BE, {[1-Cyano-4-hydroxy-7-(3-methoxy-phenoxy)-isoquinoline-3-carbonyl]-amino}-acetic acid]?
Answer: change in vivo at 6 mg/kg ([1]; Mus musculus, Monocyte, 192 h, read-out: Monocytes % Increase Over Control): 71%; Monocytes [1]: 0.3 10^3 cells/μl; change in vivo at 6 mg/kg [2]: 30%; Neutrophils [2]: 1.0 10^3 cells/μl; change in vivo at 6 mg/kg [3]: 40%; Lymphocytes [3]: 8.1 10^3 cells/μl; change in vivo at 6 mg/kg [4, 6]: 39%; Total WBC [4, 7]: 9.6 10^3 cells/μl

Question: What does the source list for `O=C(O)CNC(=O)c1ncc2cc(Oc3ccc(F)cc3)ccc2c1O` [Compound U, {[7-(4-Fluoro-phenoxy)-4-hydroxy-isoquinoline-3-carbonyl]-amino}-acetic acid]?
Answer: change in vivo at 6 mg/kg [4, 6]: 6%; Total WBC [4, 7]: 8.3 10^3 cells/μl

Question: For `COc1ccc(Cn2cc(Cl)c3c(O)c(C(=O)NCC(=O)O)nc(C#N)c32)cc1` [Compound AM, {[3-Chloro-7-cyano-4-hydroxy-1-(4-methoxy-benzyl)-1H-pyrrolo[2,3-c]pyridine-5-carbonyl]-amino}-acetic acid], which change in vivo at 200 mg/kg [5] is on record?
Answer: 264%

Question: And the “Total WBC” value [4, 8]?
Answer: 23.3 10^3 cells/μl

Question: What does the source list for `N#Cc1nc(C(=O)NCC(=O)O)c(O)c2c(Oc3cccc(Cl)c3)cccc12` [Compound BB, {[5-(3-Chloro-phenoxy)-1-cyano-4-hydroxy-isoquinoline-3-carbonyl]-amino}-acetic acid]?
Answer: change in vivo at 200 mg/kg [5]: 227%; Total WBC [4, 8]: 20.1 10^3 cells/μl

Question: What does the source list for `COc1ccc(Cn2cc(Br)c3c(O)c(C(=O)NCC(=O)O)nc(C#N)c32)cc1` [Compound AJ, {[3-Bromo-7-cyano-4-hydroxy-1-(4-methoxy-benzyl)-1H-pyrrolo[2,3-c]pyridine-5-carbonyl]-amino}-acetic acid]?
Answer: change in vivo at 200 mg/kg [5]: 237%; Total WBC [4, 8]: 21.5 10^3 cells/μl

Question: For `COc1ccc(Cn2c(Cl)c(Cl)c3c(O)c(C(=O)NCC(=O)O)nc(C#N)c32)cc1` [Compound AK, {[2,3-Dichloro-7-cyano-4-hydroxy-1-(4-methoxy-benzyl)-1H-pyrrolo[2,3-c]pyridine-5-carbonyl]-amino}-acetic acid], which change in vivo at 200 mg/kg [5] is on record?
Answer: 105%

Question: What about the “Total WBC” value [4, 8] of the same molecule?
Answer: 16.8 10^3 cells/μl

Question: What does the source list for `N#Cc1nc(C(=O)NCC(=O)O)c(O)c2c(Cl)c(Cl)n(Cc3ccc4ccccc4c3)c12` [Compound AP, [(2,3-Dichloro-7-cyano-4-hydroxy-1-naphthalen-2-ylmethyl-1H-pyrrolo[2,3-c]pyridine-5-carbonyl)-amino]-acetic acid]?
Answer: change in vivo at 100 mg/kg [5]: 88%; Total WBC [4, 9]: 10.8 10^3 cells/μl

Question: With `N#Cc1nc(C(=O)NCC(=O)O)c(O)c2c(Cl)cn(Cc3ccccc3F)c12` [Compound AN, {[3-Chloro-7-cyano-1-(2-fluoro-benzyl)-4-hydroxy-1H-pyrrolo[2,3-c]pyridine-5-carbonyl]-amino}-acetic acid] as the molecule, how does the change in vivo at 200 mg/kg [5] read?
Answer: 179%

Question: What about the “Total WBC” value [4, 8] of the same molecule?
Answer: 23.2 10^3 cells/μl

Question: What does the source list for `CC(C)Oc1ccc(Cn2c(Cl)c(Cl)c3c(O)c(C(=O)NCC(=O)O)nc(C#N)c32)cc1` [Compound AX, {[2,3-Dichloro-7-cyano-4-hydroxy-1-(4-isopropoxy-benzyl)-1H-pyrrolo[2,3-c]pyridine-5-carbonyl]-amino}-acetic acid]?
Answer: change in vivo at 100 mg/kg [5]: 81%; Total WBC [4, 9]: 12.8 10^3 cells/μl

Question: Which change in vivo at 100 mg/kg [5] does the source give for `N#Cc1nc(C(=O)NCC(=O)O)c(O)c2ccn(Cc3ccccc3)c12` [Compound AR, [(1-Benzyl-7-cyano-4-hydroxy-1H-pyrrolo[2,3-c]pyridine-5-carbonyl)-amino]-acetic acid] here?
Answer: 71%

Question: And the “Total WBC” value [4, 9]?
Answer: 9.5 10^3 cells/μl

Question: What does the source list for `N#Cc1nc(C(=O)NCC(=O)O)c(O)c2c(Cl)c(Cl)n(Cc3ccc(-c4ccccc4)cc3)c12` [Compound AV, [(1-Biphenyl-4-ylmethyl-2,3-dichloro-7-cyano-4-hydroxy-1H-pyrrolo[2,3-c]pyridine-5-carbonyl)-amino]-acetic acid]?
Answer: change in vivo at 100 mg/kg [5]: 137%; Total WBC [4, 9]: 15.2 10^3 cells/μl

Question: With `CC(C)Oc1ccc(CN2C=CC3C(O)=C(C(=O)NCC(=O)O)N=C(C#N)C32)cc1` (stereo not drawn) [Compound AZ, {[7-Cyano-4-hydroxy-1-(4-isopropoxy-benzyl)-3a,7a-dihydro-1H-pyrrolo[2,3-c]pyridine-5-carbonyl]-amino}-acetic acid] as the molecule, how does the change in vivo at 60 mg/kg [5, 10] read?
Answer: 79%

Question: And the “Total WBC” value [4, 10]?
Answer: 11.6 10^3 cells/μl

Question: Which change in vivo at 100 mg/kg [5] does the source give for `CC(C)Oc1ccc(Cn2cc(Cl)c3c(O)c(C(=O)NCC(=O)O)nc(C#N)c32)cc1` [Compound BC, {[3-Chloro-7-cyano-4-hydroxy-1-(4-isopropoxy-benzyl)-1H-pyrrolo[2,3-c]pyridine-5-carbonyl]-amino}-acetic acid] here?
Answer: 148%

Question: What about the “Total WBC” value [4, 9] of the same molecule?
Answer: 15.9 10^3 cells/μl

Question: With `CC(C)CCn1cc(Cl)c2c(O)c(C(=O)NCC(=O)O)nc(C#N)c21` [Compound AO, {[3-Chloro-7-cyano-4-hydroxy-1-(3-methyl-butyl)-1H-pyrrolo[2,3-c]pyridine-5-carbonyl]-amino}-acetic acid] as the molecule, how does the change in vivo at 100 mg/kg [5] read?
Answer: 47%

Question: And the “Total WBC” value [4, 9]?
Answer: 10.5 10^3 cells/μl

Question: `N#Cc1nc(C(=O)NCC(=O)O)c(O)c2sccc12` [Compound AA, [(4-Cyano-7-hydroxy-thieno[3,2-c]pyridine-6-carbonyl)-amino]-acetic acid] was tested. Which change in vivo at 2 mg/kg ([4]; Mus musculus, 192 h, 2 mg/kg on day 1, day 3 and day 5, read-out: Total WBC % Increase Over Control) did it give?
Answer: 20%

Question: And the “Total WBC” value ([4]; 2 mg/kg on day 1, day 3 and day 5)?
Answer: 7.1 10^3 cells/μl

Question: `N#Cc1nc(C(=O)NCC(=O)O)c(O)c2cccc(Oc3ccccc3)c12` [Compound AD, [(1-Cyano-4-hydroxy-8-phenoxy-isoquinoline-3-carbonyl)-amino]-acetic acid] was tested. Which change in vivo at 200 mg/kg [5] did it give?
Answer: 10%

Question: And the “Total WBC” value [4, 8]?
Answer: 7.6 10^3 cells/μl

Question: What does the source list for `O=C(O)CNC(=O)c1ncc2cc(Oc3ccc(F)c(Cl)c3)ccc2c1O` [Compound W, {[7-(3-Chloro-4-fluoro-phenoxy)-4-hydroxy-isoquinoline-3-carbonyl]-amino}-acetic acid]?
Answer: change in vivo at 200 mg/kg [5]: 80%; Total WBC [4, 8]: 8.4 10^3 cells/μl

Question: What does the source list for `N#Cc1nc(C(=O)NCC(=O)O)c(O)c2c(Oc3ccccc3)cccc12` [Compound AH, [(1-Cyano-4-hydroxy-5-phenoxy-isoquinoline-3-carbonyl)-amino]-acetic acid]?
Answer: change in vivo at 200 mg/kg [5]: 123%; Total WBC [4, 8]: 9.4 10^3 cells/μl

Question: For `N#Cc1nc(C(=O)NCC(=O)O)c(O)c2cc(C(F)(F)F)n(Cc3ccccc3F)c12` [Compound AQ, {[7-Cyano-1-(2-fluoro-benzyl)-4-hydroxy-2-trifluoromethyl-1H-pyrrolo[2,3-c]pyridine-5-carbonyl]-amino}-acetic acid], which change in vivo at 20 mg/kg [5] is on record?
Answer: 56%

Question: What about the “Total WBC” value [4, 11] of the same molecule?
Answer: 9.6 10^3 cells/μl

Question: What does the source list for `N#Cc1nc(C(=O)NCC(=O)O)c(O)c2cc(Oc3ccccc3)ccc12` [Compound AG, [(1-Cyano-4-hydroxy-6-phenoxy-isoquinoline-3-carbonyl)-amino]-acetic acid]?
Answer: change in vivo at 20 mg/kg [5]: 25%; Total WBC [4, 11]: 7.6 10^3 cells/μl

Question: What does the source list for `N#Cc1nc(C(=O)NCC(=O)O)c(O)c2cccc(Oc3ccc(F)cc3)c12` [Compound AF, {[1-Cyano-8-(4-fluoro-phenoxy)-4-hydroxy-isoquinoline-3-carbonyl]-amino}-acetic acid]?
Answer: change in vivo at 200 mg/kg [5]: 35%; Total WBC [4, 8]: 8.2 10^3 cells/μl
